Results from US8835440B2, “Cyclic pyrimidin-4-carboxamides as CCR2 receptor antagonists for treatment of inflammation, asthma and COPD” (Boehringer Ingelheim International GmbH, priority 2008, dated 2014).

Target: T1, CCR2 (Homo sapiens, UniProt P41597)
T1 construct: Membranes were prepared from THP-1 cells; endogenous in cells; host or cells: THP-1 cells (membrane preparation)
T1 sequence (P41597 1-360 isoform P41597-2): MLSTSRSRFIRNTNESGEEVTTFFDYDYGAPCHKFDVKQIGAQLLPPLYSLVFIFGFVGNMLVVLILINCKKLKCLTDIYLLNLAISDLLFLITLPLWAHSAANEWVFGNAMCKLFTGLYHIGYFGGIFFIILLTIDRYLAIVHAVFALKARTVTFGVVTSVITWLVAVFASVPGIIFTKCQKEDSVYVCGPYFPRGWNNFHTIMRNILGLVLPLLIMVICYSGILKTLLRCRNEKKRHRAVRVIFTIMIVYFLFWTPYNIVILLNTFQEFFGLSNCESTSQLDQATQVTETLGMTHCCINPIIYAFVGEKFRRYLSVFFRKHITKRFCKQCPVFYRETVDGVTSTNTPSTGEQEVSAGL
Experiment: CCR2 receptor membrane binding assay ([125I]MCP-1, THP-1 cell membranes, SPA beads)
Conditions: for remaining activity at 10 µM: @ 10 μM test compound, THP-1 membranes, read-out: CCR2 % ctrl @ 10 μM; for Ki: dissociation constant hKi, [125I]MCP-1 binding to THP-1 membranes
In short: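 Human THP-1 monocytic cell membranes, pre-coupled to WGA-PVT SPA beads, were incubated with compound and [125I]MCP-1 (ca. 25000 cpm) in 25 mM HEPES pH 7.2, 5 mM MgCl2, 0.5 mM CaCl2, 0.2% BSA, at 1% DMSO final. Bound radioactivity was counted after 8 h, and Ki was obtained by iterative mass-action fitting.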

remaining activity at 10 µM [%]	Ki [nM]	Compound
30	499	Cc1ccc(CNc2ncnc(C(=O)N3CCC(N4CCC(O)CC4)CC3)c2C)cc1F [Example 120]
16	230	Cc1ccc(COc2ncnc(C(=O)N3CCC(N4CCC(N(C)S(C)(=O)=O)CC4)CC3)c2C)cc1F [Example 294]
–	28	Cc1c(NCc2ccc(C(C)(C)C)cc2)ncnc1C(=O)N1CCC(N2C3CCC2CC(O)C3)CC1 (stereo not shown) [Example 228gm]
25	446	Cc1c(NCc2ccc(Cl)c(C(F)(F)F)c2)ncnc1C(=O)N1CCC(N2CCC(O)CC2)CC1 [Example 125]
53	2720	Cc1c(NCCc2ccc(Cl)c(Cl)c2)ncnc1C(=O)N1CCC(N2CCC[C@@H](NS(C)(=O)=O)C2)CC1 [Example 174]
31	687	COc1ccc(CCNc2ncnc(C(=O)N3CCC(N4CCC(O)CC4)CC3)c2C)cc1Cl [Example 105]
14	141	CCS(=O)(=O)NC1CCN(C2CCN(C(=O)c3ncnc(NCc4ccc(Cl)c(Cl)c4)c3C)CC2)CC1 [Example 195]
–	5940	Cc1c(NCC2CCOCC2)ncnc1C(=O)N1CCC(N2CCC(N(C)S(C)(=O)=O)CC2)CC1 [Example 159ac]
–	7	CNC(=O)C1CCN(C2CCN(C(=O)c3ncnc(NC[C@H]4CCC[C@@H](c5ccccc5)C4)c3C)CC2)CC1 [Example 159p]
–	17	C=Cc1c(NC[C@H]2CCC[C@@H](c3ccccc3)C2)ncnc1C(=O)N1CCC(N2CCC(N(C)S(C)(=O)=O)CC2)CC1 [Example 275dk]
34	1380	O=C(c1ncnc(NCc2cccc(-c3ccccc3)c2)c1Br)N1CCC(N2CCOCC2)CC1 [Example 277]
–	48	Cc1c(NCC2CCC(C)C2)ncnc1C(=O)N1CCC(N2CCC(N(C)S(C)(=O)=O)CC2)CC1 (stereo not shown) [Example 159bb]
–	333	CO[C@@H]1COCC[C@H]1NC1CCN(C(=O)c2ncnc(NCc3ccc(C(C)(C)C)cc3)c2C)CC1 [Example 228gn]
24	731	Cc1c(NCc2ccc(C(C)(C)C)cc2)ncnc1C(=O)N1CCC(N2CCC(n3c(C)nnc3C)CC2)CC1 [Example 212]
0	6	Cc1c(NC[C@@H]2CCC[C@@H](c3ccccc3)C2)ncnc1C(=O)N1CCC(N2CCC(N(C)S(C)(=O)=O)CC2)CC1 [Example 158]
3	12	Cc1c(NC[C@H]2CCC[C@H](c3ccccc3)C2)ncnc1C(=O)N1CCC(N2CCC(N(C)S(C)(=O)=O)CC2)CC1 [Example 150]
–	24	COC1CCN(C2CCN(C(=O)c3ncnc(NCC4CCCC(c5ccc(F)cc5)C4)c3C)CC2)CC1 (stereo not shown) [Example 159kb]
32	1440	CCc1c(NCCc2ccc(Cl)c(Cl)c2)ncnc1C(=O)N1CCC(N2CCC(O)CC2)CC1 [Example 280]
–	40	CO[C@H]1COCC[C@H]1NC1CCN(C(=O)c2ncnc(NC[C@H]3C[C@@H](c4ccccc4)C3)c2C)CC1 [Example 275dd]

remaining activity at 10 µM [%]	Ki [nM]	Compound
–	7	COc1nc(NCc2ccc(C(C)(C)C)cc2)c(C)c(C(=O)N2CCC(N3CCC(N(C)S(C)(=O)=O)CC3)CC2)n1 [Example 159b]
13	170	Cc1c(NCc2ccc(Cl)c(Cl)c2)ncnc1C(=O)N1CCC(N2CCC(N3CCCS3(=O)=O)CC2)CC1 [Example 189]
–	39	Cc1c(NCC2CCCC(C)(C)C2)ncnc1C(=O)N1CCC(N2CCC(N(C)S(C)(=O)=O)CC2)CC1 (stereo not shown) [Example 159h]
–	1350	Cc1c(NCc2ccc(C(C)(C)C)cc2)ncnc1C(=O)N1CCC(NC2CCOCC2n2ncnn2)CC1 (stereo not shown) [Example 228gp]
16	433	Cc1c(NCC2CCCN(c3ccccc3)C2)ncnc1C(=O)N1CCC(N2CCOCC2)CC1 (stereo not shown) [Example 42]
27	783	Cc1c(NCc2ccc(Cl)c(Cl)c2)ncnc1C(=O)N1CCC(N2CCC3(CCNC3=O)CC2)CC1 [Example 190]
4	64	Cc1c(NCc2ccc(Cl)c(Cl)c2)ncnc1C(=O)N1CCC(N2CC[C@H](NS(C)(=O)=O)C2)CC1 [Example 258]
0	140	Cc1c(OCC2CCN(c3ccccc3)C2)ncnc1C(=O)N1CCC(N2CCC(N(C)S(C)(=O)=O)CC2)CC1 (stereo not shown) [Example 295]
53	2990	Cc1c(NCc2ccc(Cl)c(Cl)c2)ncnc1C(=O)N1CCC(N(C)CC#N)CC1 [Example 182]
8	40	CCS(=O)(=O)N(C)C1CCN(C2CCN(C(=O)c3ncnc(NC[C@@H]4C[C@H]4c4ccccc4)c3C)CC2)CC1 [Example 147]
27	979	CO[C@H]1CCN(C2CCN(C(=O)c3ncnc(NCc4ccc(C(C)(C)C)cc4)c3C)CC2)C1 [Example 220]
23	415	Cc1c(NCCc2cccc(Cl)c2)ncnc1C(=O)N1CCC(N2CCC(O)CC2)CC1 [Example 122]
0	21	Cc1c(NCc2ccc(C(C)(C)C)cc2)ncnc1C(=O)N1CCC(N2CCC(c3ccccc3)CC2)CC1 [Example 225]
40	269	Cc1c(NCC2COc3ccccc3C2)ncnc1C(=O)N1CCC(N2CCC(O)CC2)CC1 (stereo not shown) [Example 19]
41	1930	Cc1c(NCc2cc(F)cc(C(F)(F)F)c2)ncnc1C(=O)N1CCC(N2CCC(O)CC2)CC1 [Example 6]
17	181	Cc1c(NC[C@@H]2CCC[C@H](c3ccccc3)C2)ncnc1C(=O)N1CCC(N2CCC(O)CC2)CC1 [Example 145]
–	29	Cc1c(NCc2ccc(-c3ccccc3)o2)ncnc1C(=O)N1CCC(N2CCC(N(C)S(C)(=O)=O)CC2)CC1 [Example 159u]
13	356	Cc1c(NCc2ccc(C(C)(C)C)nc2)ncnc1C(=O)N1CCC(N2CCC(N(C)S(C)(=O)=O)CC2)CC1 [Example 54]
6	80	Cc1c(NCCc2ccc(OC(F)(F)F)cc2)ncnc1C(=O)N1CCC(N2CCC(NS(C)(=O)=O)CC2)CC1 [Example 70]

remaining activity at 10 µM [%]	Ki [nM]	Compound
–	537	Cc1c(NCc2ccc(C(C)(C)C)cc2)ncnc1C(=O)N1CCC(N2CCC(Cc3ccc(F)c(F)c3)CC2)CC1 [Example 228gl]
–	11	CO[C@@H]1COCC[C@@H]1NC1CCN(C(=O)c2nc(C)nc(NC[C@H]3C[C@@H](c4ccccc4)C3)c2C)CC1 [Example 275dc]
14	773	COc1ccc(CCNc2ncnc(C(=O)N3CCC(N4CCCCC4)CC3)c2C)cc1Cl [Example 136]
–	10	Cc1c(NCC2CCC(c3ccc(F)cc3)C2)ncnc1C(=O)N1CCC(N2CCC(N(C)S(C)(=O)=O)CC2)CC1 (stereo not shown) [Example 159q]
6	58	Cc1nc(NCc2ccc(Cl)c(Cl)c2)c(C)c(C(=O)N2CCC(N3CCC(NS(C)(=O)=O)CC3)CC2)n1 [Example 88]
7	98	Cc1c(NCc2ccc(F)c(Cl)c2)ncnc1C(=O)N1CCC(N2CCC(N(C)S(C)(=O)=O)CC2)CC1 [Example 68]
–	233	Cc1c(NCC2CCCC(c3ccccn3)C2)ncnc1C(=O)N1CCC(N2CCC(N(C)S(C)(=O)=O)CC2)CC1 (stereo not shown) [Example 159n]
–	24	CNC(=O)C1CCN(C2CCN(C(=O)c3ncnc(NCC4CCCC(c5ccccc5)C4)c3C)CC2)CC1 (stereo not shown) [Example 159i]
34	1670	Cc1c(C(=O)N2CCC(N3CCC(N(C)S(C)(=O)=O)CC3)CC2)ncnc1-c1ccc(C(C)(C)C)cc1 [Example 289]
–	5	Cc1c(NCC2CCCC(c3ccc(Cl)cc3)C2)ncnc1C(=O)N1CCC(N2CCC(N(C)S(C)(=O)=O)CC2)CC1 (stereo not shown) [Example 159da]
15	222	Cc1c(NCCc2ccc(Cl)c(Cl)c2)ncnc1C(=O)N1CCC(N2CC[C@@H](O)C2)CC1 [Example 165]
11	213	Cc1c(NCc2ccc(Cl)c(Cl)c2)ncnc1C(=O)N1CCC(N2CCC(O)CC2)CC1 [Example 109]
4	11	CCS(=O)(=O)N(C)C1CCN(C2CCN(C(=O)c3ncnc(NCc4ccc(C(C)(C)C)cc4)c3C)CC2)CC1 [Example 37]
18	395	Cc1c(NCc2cccc(-c3ccccc3)c2)ncnc1C(=O)N1CCC(N2CCCC(O)C2)CC1 (stereo not shown) [Example 100]
36	1020	Cc1c(NCc2cccc(OC(F)(F)F)c2)ncnc1C(=O)N1CCC(N2CCC(O)CC2)CC1 [Example 8]
3	26	COC1COCCC1N(C)C1CCN(C(=O)c2ncnc(NCc3ccc(C(C)(C)C)cc3)c2C)CC1 (stereo not shown) [Example 275b]
43	1250	Cc1c(NCCc2ccc(Cl)c(Cl)c2)ncnc1C(=O)N1CCC(N2CCC[C@H](C(=O)N(C)C)C2)CC1 [Example 177]
20	361	Cc1c(NCCc2ccc(Cl)cc2)ncnc1C(=O)N1CCC(N2CCC(O)CC2)CC1 [Example 124]
